Assay results from patent US20240358015A1, “HERBICIDAL COMPOSITIONS” (Agrematch Ltd., priority 2021, published 2024).

How the values were obtained:
A. palmeri = test: Growth-chamber post-emergence assay on various weed species (Example 7); format: in vivo, Amaranthus palmeri; conditions: 0.05% Break-Thru, 3-4 days after application
Method: (§1) Herbicidal activity of Compound 1 was determined by post-emergence application on various weed species. 8-14 day old plants (weeds) were grown at 16 hours/8 hours day/night cycles at 30° C./25° C., respectively. Leaf stage was typically 2-6.
(§2) In each treatment, 3 pots (either 7×7 or 8×12 cm), containing about 3-6 plants each, were sprayed using a VL-SET Paasche Airbrush with a 1-1.5 ml-solution containing 0.5-1.5 mg/ml of the tested compound, which is equivalent to about 500-1500 g/ha.
(§3) Damage assessment: Herbicidal activity was assessed and scored 3-4 days after application by visual inspection of the plants in comparison to plants treated with the formulation alone (with no active ingredient) as control. Activity score is in the range of 0 to 100, where 0 represents no herbicidal activity like control plants and 100 represents the maximal herbicidal activity (i.e., total death of the plant).

Sensitive A. rudis [1] = test: Net-house assay with resistant weeds (Example 9); format: in vivo, Amaranthus rudis; conditions: 1,500 g/ha, 13 days after application, scale 0-100
Method: (§4) Herbicidal activity of Compound 1 was determined by post-emergence application in both Growth-chamber and Net-house conditions. Growing conditions were as described in Examples 6 and 8 above.
(§5) The assay was performed on 13-15 day old plants (weeds) of Amaranthus rudis that were either target-site resistant or sensitive to HRAC class 5. In each treatment, 3 pots (8×12 cm), containing about 6 Amaranthus Rudis plants, were sprayed using a VL-SET Paasche Airbrush with a 1 ml-solution.
as §3, with “13” for “3-4”

[2] = system: Resistant A. rudis (target-site resistant to HRAC class 5); test: Net-house assay with resistant weeds (Example 9); format: in vivo, Amaranthus rudis; conditions: 1,500 g/ha, 13 days after application, scale 0-100
Method: as §4, §5
as §3, with “13” for “3-4”

T. vulgare = test: Growth-chamber post-emergence assay on various weed species (Example 7); format: in vivo; conditions: 500 g/ha; 0.8% MIPA, 0.25% Genapol, 1% AGNIQUE, 0.05% Ca-LAS, 0.02% BSU, 0.05% Break-Thru
Method: as §1, §2, §3

D. ferox = test: as above; format: in vivo; conditions: 1500 g/ha; 0.8% MIPA, 0.25% Genapol, 2% HASTEN, 0.05% Break-Thru
Method: as §1, §2, §3

S. alba = test: as above; format: in vivo; conditions: 500 g/ha; 0.8% MIPA, 0.25% Genapol, 1% AGNIQUE, 0.05% Ca-LAS, 0.02% BSU, 0.05% Break-Thru
Method: as §1, §2, §3

A. retroflexus = test: as above; format: in vivo; conditions: 500 g/ha; 0.8% MIPA, 0.25% Genapol, 1% AGNIQUE, 0.05% Ca-LAS, 0.02% BSU, 0.05% Break-Thru
Method: as §1, §2, §3

L. multiflorum = test: as above; format: in vivo, Lolium multiflorum; conditions: 1500 g/ha; 0.8% MIPA, 0.25% Genapol, 2% HASTEN, 0.05% Break-Thru
Method: as §1, §2, §3

S. nigrum = test: as above; format: in vivo, Solanum nigrum; conditions: 0.05% Break-Thru
Method: as §1, §2, §3

S. viridis = test: as above; format: in vivo, Setaria viridis; conditions: 0.05% Break-Thru
Method: as §1, §2, §3

Sensitive A. rudis [3] = test: Growth-chamber assay with resistant weeds (Example 9); format: in vivo, Amaranthus rudis; conditions: 2,000 g/ha, 4-5 days after application, scale 0-100
Method: as §4
as §5, with “9-11” for “13-15”, “treatment, between 1 to” for “treatment,”
as §3, with “4-5” for “3-4”

[4] = system: Resistant A. rudis (target-site resistant to HRAC class 5); test: as above; format: in vivo, Amaranthus rudis; conditions: 2,000 g/ha, 4-5 days after application, scale 0-100
Method: as §4
as §5, with “9-11” for “13-15”, “treatment, between 1 to” for “treatment,”
as §3, with “4-5” for “3-4”

A. theophrasti = test: Growth-chamber post-emergence assay on various weed species (Example 7); format: in vivo, Abutilon theophrasti; conditions: 1500 g/ha; 0.8% MIPA, 0.25% Genapol, 2% HASTEN, 0.05% Break-Thru
Method: as §1, §2, §3

E. colonum = test: as above; format: in vivo, Echinochloa colonum; conditions: 1500 g/ha; 0.8% MIPA, 0.25% Genapol, 2% HASTEN, 0.05% Break-Thru
Method: as §1, §2, §3

Amaranthus palmeri = test: Net-house post-emergence assay (Example 6); format: in vivo; conditions: 750 g/ha, 0.05% MIPA
Method: Post-emergence herbicidal activity was tested on Amaranthus palmeri weeds species that were grown in a net-house. Average daily minimum and maximum temperatures during the assay were 20.5° C./[…], respectively. Leaf stage at the time of application was 3-4. In each treatment, 3 flowerpots (7 cm×7 cm×6 cm) containing about 3-6 plants, were sprayed using a VL-SET Paasche Airbrush with a […] 0.75 mg/ml of the tested compound, which is equivalent to 750 g/ha.
as §3, with “1-12” for “3-4”

[5] = 750 g/ha, 0.2% MIPA, 2% TWEEN20, 1% AGNIQUE, 0.05% Ca-LAS, 0.02% BSU
[6] = 1500 g/ha, 0.8% MIPA, 0.25% Genapol, 2% HASTEN

Measured: Herbicidal activity score

O=C(O)c1cc(O)c2c(c1)C(=O)c1cccc(O)c1C2=O [Compound 1, Rhein]
40: A. theophrasti
70: S. viridis; 500 g/ha, 0.8% MIPA, 0.25% Genapol, 1% AGNIQUE, 0.05% Ca-LAS, 0.02% BSU | S. viridis; [5]
10: T. vulgare
90: E. colonum | Amaranthus palmeri; 2% Hasten, 0.05% Break-Thru, 5 DAT | Amaranthus palmeri; 2% Hasten, 0.05% Break-Thru, 7 DAT
85: A. retroflexus
80: S. alba | Amaranthus palmeri; 2% Hasten, 0.05% Break-Thru, 12 DAT
50: L. multiflorum
95: D. ferox | S. nigrum; [5] | Amaranthus palmeri; 2% Hasten, 0.05% Break-Thru, 1 DAT | Amaranthus palmeri; 2% Hasten, 0.05% Break-Thru, 3 DAT | Amaranthus palmeri; 2% TWEEN20, 0.05% Break-Thru, 1 DAT, scale 0-100
100: A. palmeri; 500 g/ha, 0.8% MIPA, 0.25% Genapol, 1% AGNIQUE, 0.05% Ca-LAS, 0.02% BSU, scale 0-100 | A. palmeri; [5] | A. palmeri; [6] | Sensitive A. rudis [1] | [2] | S. nigrum; [6] | S. viridis; [6] | Sensitive A. rudis [3] | [4] | Amaranthus palmeri; 2% TWEEN20, 0.05% Break-Thru, 3 DAT | Amaranthus palmeri; 2% TWEEN20, 0.05% Break-Thru, 5 DAT | Amaranthus palmeri; 2% TWEEN20, 0.05% Break-Thru, 7 DAT | Amaranthus palmeri; 2% TWEEN20, 0.05% Break-Thru, 12 DAT
